Reference: PMC10780633, “Novel Multi-Target Agents Based on the Privileged Structure of 4-Hydroxy-2-quinolinone” (Molecules, 2023)
Blank lines part the entries; values can stand above or below the compound they belong to.

Experiments:
[1] = ABTS radical cation decolorization assay; conditions: 0.1 mM
Procedure: (§1) In this work, the carboxamides 3a–3u, the quinolinone–cinnamic or benzoic acid hybrids 11a–11g and the reverse amides 16a–16c were tested for their antioxidant activity via five in vitro techniques; (i) the interaction with the stable free radical 2,2-diphenyl-1-picrylhydrazyl (DPPH); (ii) the inhibition of lipid peroxidation; (iii) the hydroxyl radical scavenging ability; (iv) the 2,2-azino-bis(3-ethylbenzothiazoline-6-sulfonic acid (ABTS) radical cation (ABTS·^+) reduction; and (v) the superoxide anion radical scavenging ability.
The experimental technique used in this section was performed according to the methods of Pontiki et al.. The results were compared to the appropriate standard inhibitor Trolox.

[2] = molecular target: T1, soybean lipoxygenase (Glycine max, UniProt P08170); assay: Soybean LOX inhibition in vitro (UV absorbance-based assay); format: biochemical
T1 construct: purchased Sigma Chemical, Co. (St. Louis, MO, USA)
T1 sequence (P08170 1-839): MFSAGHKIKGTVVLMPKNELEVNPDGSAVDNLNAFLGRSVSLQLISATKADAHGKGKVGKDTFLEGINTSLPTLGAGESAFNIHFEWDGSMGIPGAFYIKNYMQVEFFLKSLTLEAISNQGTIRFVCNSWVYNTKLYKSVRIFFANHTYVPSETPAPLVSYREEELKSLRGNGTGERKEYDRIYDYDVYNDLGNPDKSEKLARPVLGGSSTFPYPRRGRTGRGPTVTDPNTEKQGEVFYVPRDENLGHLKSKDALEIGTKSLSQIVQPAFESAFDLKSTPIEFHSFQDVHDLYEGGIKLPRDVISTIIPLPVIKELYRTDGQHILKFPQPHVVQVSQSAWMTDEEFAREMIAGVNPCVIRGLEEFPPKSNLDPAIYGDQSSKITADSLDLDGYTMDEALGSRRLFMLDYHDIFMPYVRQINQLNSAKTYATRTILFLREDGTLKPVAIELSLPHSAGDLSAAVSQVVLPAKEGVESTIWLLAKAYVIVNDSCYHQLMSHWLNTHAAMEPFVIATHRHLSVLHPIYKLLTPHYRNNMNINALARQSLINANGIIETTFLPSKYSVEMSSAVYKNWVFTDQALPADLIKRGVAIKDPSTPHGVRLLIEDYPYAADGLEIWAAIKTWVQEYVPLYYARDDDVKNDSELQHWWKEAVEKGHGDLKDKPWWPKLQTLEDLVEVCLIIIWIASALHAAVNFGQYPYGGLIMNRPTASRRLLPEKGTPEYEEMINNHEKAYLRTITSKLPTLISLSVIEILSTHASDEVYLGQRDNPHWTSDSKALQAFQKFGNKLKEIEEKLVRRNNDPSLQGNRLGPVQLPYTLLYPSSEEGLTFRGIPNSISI
Procedure: For this study, the UV absorbance-based soybean LOX assay was used.
The assay for the determination of the inhibition of soybean LOX was performed according to the methods of Hadjipavlou-Litina et al., which we have also used in our previous works.

[3] = Non-enzymatic superoxide anion radical scavenging assay (PMS); conditions: 0.1 mM
Procedure: as §1
The experimental technique used for this assay was performed according to our previous works. Caffeic acid was used as an appropriate standard.

[4] = Interaction with the stable free radical DPPH (reducing activity); conditions: 100 μM
Procedure: as §1

[5] = Inhibition of lipid peroxidation of linoleic acid induced by AAPH radical; conditions: 100 μM
Procedure: as §1
The assay for the determination of the inhibition of linoleic acid peroxidation induced by the free radical initiator […](2-amidinopropane) dihydrochloride (AAPH) was performed according to the methods of Hadjipavlou-Litina et al., which we have also used in our previous works.

[6] = Competition with DMSO for hydroxyl radicals; conditions: 0.1 mM
Procedure: as §1
The assay was performed according to the methods of Pontiki et al. Trolox was used as a reference compound [78].

Inhibition of Soybean Lipoxygenase % at 0.1 mM ([2]; 0.1 mM): 24.0%
Compound: 4-hydroxy-N-(2-hydroxy-1-phenylethyl)-2-oxo-1-phenyl-1,2-dihydroquinoline-3-carboxamide [Compound 3q]
ABTS% (ABTS radical cation decolorization) [1]: no
PMS% (superoxide anion radical scavenging) [3]: no
Interaction with the Free Radical DPPH (%) ([4]; 20 min): 23.8%
Interaction with the Free Radical DPPH (%) ([4]; 60 min): 10.0%
Inhibition of Lipid Peroxidation of Linoleic Acid Induced by AAPH Radical (%) [5]: 100%

Inhibition of Soybean Lipoxygenase % at 0.1 mM ([2]; 0.1 mM): inactive and no
Compound: O=C(Nc1ccncc1)c1c(O)c2ccccc2n(-c2ccccc2)c1=O [Compound 3u, 4-hydroxy-2-oxo-1-phenyl-N-(pyridin-4-yl)-1,2-dihydroquinoline-3-carboxamide]
ABTS% (ABTS radical cation decolorization) [1]: no
PMS% (superoxide anion radical scavenging) [3]: no
Interaction with the Free Radical DPPH (%) ([4]; 20 min): 19.3%
Interaction with the Free Radical DPPH (%) ([4]; 60 min): 8.3%
Inhibition of Lipid Peroxidation of Linoleic Acid Induced by AAPH Radical (%) [5]: 16.4%

IC50 [2]: 61 µM
Compound: CCn1c(=O)c(C(=O)NCCNC(=O)c2ccc(OC(C)=O)cc2)c(O)c2ccccc21 [Compound 11a, 4-((2-(1-ethyl-4-hydroxy-2-oxo-1,2-dihydroquinoline-3-carboxamido)ethyl)carbamoyl)phenyl acetate]
Interaction with the Free Radical DPPH (%) ([4]; 20 min): 1.0%
Interaction with the Free Radical DPPH (%) ([4]; 60 min): 4.4%
Inhibition of Lipid Peroxidation of Linoleic Acid Induced by AAPH Radical (%) [5]: 89.0%

IC50 [2]: 70 µM
Compound: CCn1c(=O)c(C(=O)NCCNC(=O)c2cc(OC)c(OC(C)=O)c(OC)c2)c(O)c2ccccc21 [Compound 11b, 4-((2-(1-ethyl-4-hydroxy-2-oxo-1,2-dihydroquinoline-3-carboxamido)ethyl)carbamoyl)-2,6-dimethoxyphenyl acetate]
Interaction with the Free Radical DPPH (%) ([4]; 20 min): 3.0%
Interaction with the Free Radical DPPH (%) ([4]; 60 min): no
Inhibition of Lipid Peroxidation of Linoleic Acid Induced by AAPH Radical (%) [5]: 93.8%

The remaining lines, values behind:

Compound: 4-hydroxy-N-(2-hydroxy-1-phenylethyl)-1-methyl-2-oxo-1,2-dihydroquinoline-3-carboxamide [Compound 3p]
ABTS% (ABTS radical cation decolorization) [1]: no
Inhibition of Soybean Lipoxygenase % at 0.1 mM ([2]; 0.1 mM): no
PMS% (superoxide anion radical scavenging) [3]: no
Interaction with the Free Radical DPPH (%) ([4]; 20 min): 19.5%
Interaction with the Free Radical DPPH (%) ([4]; 60 min): 6.6%
Inhibition of Lipid Peroxidation of Linoleic Acid Induced by AAPH Radical (%) [5]: 100%

Compound: O=C(O)/C=C/c1ccc(O)c(O)c1 [Caffeic acid, reference compound]
PMS% (superoxide anion radical scavenging) [3]: 23%

Compound: CCCNC(=O)c1c(O)c2ccccc2n(-c2ccccc2)c1=O [Compound 3b, 4-hydroxy-2-oxo-1-phenyl-N-propyl-1,2-dihydroquinoline-3-carboxamide]
OH% (hydroxyl radical scavenging) [6]: 40.8%
ABTS% (ABTS radical cation decolorization) [1]: 35.5%
inhibition at 100 µM ([2]; 0.1 mM): 45%
PMS% (superoxide anion radical scavenging) [3]: 84.6%
Interaction with the Free Radical DPPH (%) ([4]; 20 min): 2.7%
Interaction with the Free Radical DPPH (%) ([4]; 60 min): 11.8%
Inhibition of Lipid Peroxidation of Linoleic Acid Induced by AAPH Radical (%) [5]: 100%

Compound: Cn1c(=O)c(C(=O)NCCO)c(O)c2ccccc21 [Compound 3c, 4-hydroxy-N-(2-hydroxyethyl)-1-methyl-2-oxo-1,2-dihydroquinoline-3-carboxamide]
OH% (hydroxyl radical scavenging) [6]: 39.8%
ABTS% (ABTS radical cation decolorization) [1]: 25.6%
IC50 [2]: 52 µM
PMS% (superoxide anion radical scavenging) [3]: 76.9%
Interaction with the Free Radical DPPH (%) ([4]; 20 min): 3.3%
Interaction with the Free Radical DPPH (%) ([4]; 60 min): 10.7%
Inhibition of Lipid Peroxidation of Linoleic Acid Induced by AAPH Radical (%) [5]: 100%

Compound: Cn1c(=O)c(C(=O)Nc2ccc(O)cc2)c(O)c2ccccc21 [Compound 3f, 4-hydroxy-N-(4-hydroxyphenyl)-1-methyl-2-oxo-1,2-dihydroquinoline-3-carboxamide]
OH% (hydroxyl radical scavenging) [6]: 67.7%
ABTS% (ABTS radical cation decolorization) [1]: 77.3%
IC50 [2]: 49 µM
Interaction with the Free Radical DPPH (%) ([4]; 20 min): 39.3%
Interaction with the Free Radical DPPH (%) ([4]; 60 min): 48.6%
Inhibition of Lipid Peroxidation of Linoleic Acid Induced by AAPH Radical (%) [5]: 100%
